The results in this text go back to PubChem BioAssay (NCI).

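Step 1: Grow cells in 96-well plates. Step 2: Expose to compound for 48 hours at 5 concentrations. Step 3: Interpolate endpoints linearly; if unreached, use highest concentration. GI50: concentration for 50% inhibition of growth. The concentration for full growth arrest is given as TGI.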 Where a SMILES comes first, the peptide text is derived from it. [ ]: non-standard residue; d: D form. ξ: configuration not given here. Pentanoyl(2-O,4-OH,5-Cl) = O=C(O)C(O)CC(O)CCl; Ile(3ξ) = CCC(C)[C@H](N)C(=O)O; NMeV = CN[C@H](C(=O)O)C(C)C; NMeA = CN[C@@H](C)C(=O)O; βAla = NCCC(=O)O A value given as a limit tells only on which side of the number the result lay.

Among the test systems are DU-145 prostate; SW-620 colon; MALME-3M melanoma; NCI/ADR-RES ovarian; 786-0 renal; HS 578T breast; SNB-75 CNS; SK-MEL-5 melanoma; U251 CNS; MCF7 breast.
Holding throughout (assay): growth of human tumour cells (NCI), 48 h

For `Nc1nc(N)c2cc(S(=O)(=O)c3cccc(C(F)(F)F)c3)ccc2n1`, the GI50 was 6.35 µM in the assay with DU-145 prostate; 0.989 µM in the assay on SW-620 colon; 5.74 µM in the assay with MALME-3M melanoma; 7.79 µM in the assay with NCI/ADR-RES ovarian; 3.98 µM with 786-0 renal; 4.55 µM with HS 578T breast. Moreover, the GI50 with SNB-75 CNS was 12.9 µM; in the assay on SK-MEL-5 melanoma, 2.98 µM; in the assay with U251 CNS, 3.52 µM; in the assay on MCF7 breast, 5.7 µM. In addition, the TGI in the assay with DU-145 prostate is over 100 µM; with SW-620 colon, over 100 µM; in the assay with MALME-3M melanoma, over 100 µM; with NCI/ADR-RES ovarian it was over 100 µM; in the assay on 786-0 renal, over 100 µM; with HS 578T breast, 49.7 µM. For the same molecule, the TGI with SNB-75 CNS is 39.8 µM; with SK-MEL-5 melanoma, over 100 µM; in the assay on U251 CNS, over 100 µM; in the assay on MCF7 breast, over 100 µM.

Consider `COC1C(OC(=O)/C=C/C=C/C=C/C=C/C(=O)O)CCC2(CO2)C1C1(C)OC1CC=C(C)C` (configuration not stated), for which the GI50 was 0.651 µM with DU-145 prostate; 0.272 µM in the assay on SW-620 colon; 0.45 µM in the assay with MALME-3M melanoma; 0.31 µM with 786-0 renal; 0.287 µM in the assay with SNB-75 CNS; 0.271 µM with SK-MEL-5 melanoma. Besides, the GI50 was 0.032 µM in the assay with U251 CNS and 0.172 µM with MCF7 breast. Further, the TGI with DU-145 prostate is over 100 µM; with SW-620 colon it was over 100 µM; in the assay on MALME-3M melanoma, over 75.3 µM; in the assay on NCI/ADR-RES ovarian, 97.7 µM; with 786-0 renal, over 100 µM; with HS 578T breast it was over 100 µM. The figures for the TGI in the assay on SNB-75 CNS, in the assay on SK-MEL-5 melanoma and with MCF7 breast were over 86.4 µM, over 64.9 µM and over 100 µM, respectively.

`CN1CCN(c2ccc3nc(-c4[nH]ncc4Nc4ncnc5[nH]ccc45)[nH]c3c2)CC1`: the GI50 in the assay with DU-145 prostate was 0.362 µM; with SW-620 colon, 0.312 µM; in the assay with MALME-3M melanoma, 0.379 µM; in the assay on NCI/ADR-RES ovarian it was 5.24 µM; with 786-0 renal, 0.387 µM; in the assay with HS 578T breast it was 0.216 µM. Further, the GI50 in the assay with SNB-75 CNS was 0.116 µM; in the assay on SK-MEL-5 melanoma it was 0.367 µM; with U251 CNS, 0.234 µM; in the assay on MCF7 breast it was 0.293 µM. Further, the TGI with DU-145 prostate is 22.7 µM; with SW-620 colon, 3.47 µM; in the assay on MALME-3M melanoma, 2.64 µM; in the assay on NCI/ADR-RES ovarian, over 100 µM; in the assay on 786-0 renal, 2.21 µM; with HS 578T breast, 2.03 µM. Further, the TGI in the assay on SNB-75 CNS stood at 0.574 µM; in the assay on SK-MEL-5 melanoma, 2.15 µM; with U251 CNS, 11.4 µM; in the assay with MCF7 breast, 11.2 µM.

Consider `CCCCCCCCCCCC(c1ccccc1)[N+](C)(C)C` (configuration not stated), for which the GI50 with DU-145 prostate is 1.56 µM; with SW-620 colon, 1.5 µM; with MALME-3M melanoma, 1.29 µM; with NCI/ADR-RES ovarian it was over 100 µM; with 786-0 renal, 1.63 µM; in the assay with HS 578T breast, 1.16 µM. The GI50 was 1.15 µM with SNB-75 CNS, 0.874 µM in the assay on SK-MEL-5 melanoma, 1.14 µM with U251 CNS and 1.44 µM in the assay with MCF7 breast. Besides, the TGI is 7.51 µM in the assay on DU-145 prostate; 3.86 µM in the assay on SW-620 colon; 2.91 µM in the assay with MALME-3M melanoma; over 100 µM in the assay on NCI/ADR-RES ovarian; 3.55 µM with 786-0 renal; 3.28 µM in the assay on HS 578T breast. Besides, the TGI was 2.55 µM in the assay on SNB-75 CNS, 2.11 µM in the assay with SK-MEL-5 melanoma, 2.49 µM with U251 CNS and 3.19 µM in the assay on MCF7 breast.

On to `CCC(C)[C@@H]1NC(=O)[C@@H]2CCCN2C(=O)C(CC(O)CCl)OC(=O)CCNC(=O)[C@H](C)N(C)C(=O)[C@H](C(C)C)N(C)C1=O` (some centres not stated) (cyclo([Ile(3ξ)][NMeV][NMeA][βAla][Pentanoyl(2-O,4-OH,5-Cl)]P)), for which the TGI with DU-145 prostate is over 100 µM; in the assay with SW-620 colon, over 100 µM; in the assay on MALME-3M melanoma, over 100 µM; with NCI/ADR-RES ovarian, over 100 µM; in the assay with 786-0 renal it was over 86.2 µM; in the assay with HS 578T breast it was over 100 µM. The TGI in the assay with SNB-75 CNS is over 100 µM; in the assay on SK-MEL-5 melanoma, 2.29 µM; with U251 CNS, over 100 µM; with MCF7 breast, over 100 µM.

As to `CC(=O)Nc1ccc(CC[C@H]2CCC/C=C/[C@@H]3C[C@H](O)C[C@H]3[C@H](O)/C=C/C(=O)O2)cc1`, the GI50 in the assay on DU-145 prostate was 0.366 µM; with SW-620 colon, 0.185 µM; in the assay with MALME-3M melanoma, 0.257 µM; with NCI/ADR-RES ovarian, 0.819 µM; in the assay with 786-0 renal, 0.0252 µM; in the assay with HS 578T breast, 0.0674 µM. Besides, the GI50 is 0.0446 µM in the assay with SNB-75 CNS, 0.0188 µM with SK-MEL-5 melanoma, 0.304 µM in the assay with U251 CNS and 0.157 µM in the assay with MCF7 breast. Further, the TGI was 4.2 µM with DU-145 prostate; 0.597 µM in the assay with SW-620 colon; 0.573 µM in the assay with MALME-3M melanoma; over 100 µM in the assay on NCI/ADR-RES ovarian; 0.0838 µM in the assay on 786-0 renal; over 93.7 µM in the assay on HS 578T breast. Besides, the TGI with SNB-75 CNS was over 94.7 µM; in the assay with SK-MEL-5 melanoma, 0.0348 µM; in the assay on U251 CNS, over 100 µM; with MCF7 breast it was 0.338 µM.

Turning to `CCCN1CCC(Oc2cc(Nc3nc(Nc4cccc(F)c4C(N)=O)c4cc[nH]c4n3)c(OC)cc2Cl)CC1`, the GI50 in the assay on DU-145 prostate was 3.68 µM; with SW-620 colon, 0.785 µM; with MALME-3M melanoma, 3.81 µM; in the assay with NCI/ADR-RES ovarian, 3.73 µM; in the assay with 786-0 renal, 3.65 µM; in the assay with HS 578T breast it was 3.73 µM. The GI50 in the assay with SNB-75 CNS is 3.22 µM; with SK-MEL-5 melanoma, 1.23 µM; in the assay with U251 CNS, 1.68 µM; with MCF7 breast it was 0.907 µM. Moreover, the TGI worked out at 7.76 µM with DU-145 prostate; 3.57 µM in the assay with SW-620 colon; 8.4 µM with MALME-3M melanoma; 8.57 µM with NCI/ADR-RES ovarian; 7.52 µM with 786-0 renal; 10.6 µM in the assay on HS 578T breast. Moreover, the TGI came out at 7.79 µM in the assay with SNB-75 CNS, 2.67 µM in the assay on SK-MEL-5 melanoma, 5.21 µM with U251 CNS and 3.97 µM with MCF7 breast.

As to `COc1ccc(CC(C)NCC(O)c2ccc(O)c(NC=O)c2)cc1` (configuration not stated), the TGI with DU-145 prostate, in the assay with SW-620 colon, in the assay with MALME-3M melanoma, in the assay on NCI/ADR-RES ovarian, with 786-0 renal and with HS 578T breast was over 100 µM each time. In addition, the TGI with SNB-75 CNS, in the assay with SK-MEL-5 melanoma, in the assay on U251 CNS and in the assay with MCF7 breast was over 100 µM each time.

As to `CC(C)(Sc1cc(C(C)(C)C)c(O)c(C(C)(C)C)c1)Sc1cc(C(C)(C)C)c(O)c(C(C)(C)C)c1`, the TGI in the assay on DU-145 prostate, with SW-620 colon, in the assay with MALME-3M melanoma, in the assay with NCI/ADR-RES ovarian, with 786-0 renal and in the assay with HS 578T breast was over 100 µM in each case. For the same molecule, the TGI in the assay with SNB-75 CNS, with SK-MEL-5 melanoma, with U251 CNS and with MCF7 breast was over 100 µM each time.
